What was measured:
[1] = healthy male volunteers, iv TCI; for subjects who lost consciousness at 75% of LOC: target 75% of individually determined LOC concentration; for subjects who lost consciousness at 100% of LOC: target 100% of individually determined LOC concentration; for subjects who lost consciousness at 125% of LOC: target 125% of individually determined LOC concentration
Protocol: Twenty volunteers (healthy, right-handed, 19 to 28 years old males) participated in this open, non-randomized study approved by the local ethics committee and the National Agency for Medicines. All subjects gave written informed consent. […] Subjects refrained from using alcohol or any medication for 48 hours before the study and they fasted overnight. No pre-medication was administered prior to study drug administration.
Subjects participated in two separate anesthesia sessions approximately one month apart. The first session was used to establish each subject's individual dose-response characteristics. The second session was used for neuroimaging. Subjects were anesthetized in a similar fashion on the two separate occasions. For each session, the subjects were prepared for the administration of a general anesthetic. In the first session, the individual concentrations for LOC were determined. Subjects were divided into two groups to receive either dexmedetomidine (n=10) or propofol (n=10) intravenous anesthesia via computer-controlled infusion. Once assigned to a particular anesthetic agent, that subject then again received that anesthetic during the neuroimaging session. Each infusion was started at a low rate and was then increased in a step-wise manner at 10 min intervals until LOC was detected. Consciousness was tested at 5 min intervals by asking the subjects to open their eyes. LOC was defined as being unresponsive to this request.
Dexmedetomidine (Precedex 100 μg/ml, Orion, 02200 Espoo, Finland) was administered intravenously using a target controlled infusion (TCI) scheme aiming at escalating pseudo steady-state plasma concentrations every 10 min. A Harvard 22 syringe pump (Harvard Apparatus, South Natick, Mass.) connected to a portable computer running […] software (Steven L. Schafer, M.D., Columbia University Medical Center, 622 W 168th St, PH 5-505 New York, N.Y. 10032-3725, USA) and the pharmacokinetic parameters of Talke were used (P. Talke et al., Anesthesiology 99, 65 (2003)). In the first session, the infusion was started at a target (plasma) concentration of 1.0 ng/ml, followed first by a 0.5 ng/ml target concentration increase and then by subsequent 0.25 ng/ml increases thereafter (i.e. 1.0-1.5-1.75-2.0-2.25-etc. ng/ml) until LOC was achieved.
Propofol (Propofol Lipuro 10 mg/ml, B. Braun Melsungen AG, Pfieffewiesen, D-34212 Melsungen, Germany) was administrated with the same infusion system and scheme as dexmedetomidine, using the Marsh pharmacokinetic model (B. Marsh et al., Br J Anaesth 67, 412 (1991)). In the first session, the infusion was started at a target (plasma) concentration of 1.0 μg/ml, followed first by a 0.5 μg/ml target concentration increase and then subsequent 0.25 μg/ml increases thereafter (i.e. 1.0-1.5-1.75-2.0-2.25-etc. μg/ml) until LOC was achieved.
In the second (neuroimaging) session of the study, the computer controlled drug infusion was repeated for each subject by aiming at their individually determined drug concentrations 50, 75 and 100% of the LOC concentration. Consciousness was tested similarly to the first session. If the LOC concentration defined in the first session of the study was not sufficient to produce LOC in the second session, the drug infusion was continued and an additional 25% target concentration increment was added to the rate. Concentrations were adjusted at 10 min intervals with simultaneous imaging at each level until LOC was detected.

[2] = after LOC, continuous infusion of the drug
Protocol: After LOC was reached and neuroimaging completed at that level of anesthesia, those in the propofol infusion group had the infusion terminated and the subjects were allowed to emerge from anesthesia. During the emergence process, consciousness was tested at 1 min intervals until ROC was detected. ROC was defined as eye opening in response to the command to do so. […] PET measurements were thus obtained during the four conditions: baseline, sedation, LOC and ROC for 17 subjects.

Structure (SMILES)	subjects who lost consciousness at 50% of the previously measured LOC concentration value ([1]; target 50% of individually determined LOC concentration)	subjects who lost consciousness at 75% of LOC [1]	subjects who lost consciousness at 100% of LOC [1]	subjects who lost consciousness at 125% of LOC [1]	restoration of consciousness by stimulation during drug infusion [2]
Cc1cccc([C@H](C)c2cnc[nH]2)c1C [dexmedetomidine, Dexmedetomidine]	1	1	3	5	gentle tactile stimulation and/or loud voice was sufficient to restore consciousness
CC(C)c1cccc(C(C)C)c1O [propofol, Propofol]	–	2	6	1	–
